This note sets out measurements from patent publication US5770597A, “Quinolone derivatives and processes for preparing the same” (Korea Research Institute of Chemical Technology, priority 1993, dated 1998).

For test [1], the system named is Enterobacter cloacae P 99. It is filed as cell-based. Conditions: Mueller-Hinton agar, 10^7 CFU/ml, 37° C., 18 hours. Here is the method: (§1) The numbers in Tables represent the minimal inhibitory concentration (MIC, μg/ml) of the corresponding strains and MIC was determined in accordance with the agar culture medium two-fold dilution method by using a Mueller-Hinton agar.
(§2) Hoechst standard strains were used.

In test [2] the test system is Staphylococcus aureus 285. Nature of the test: In vitro antibacterial activity (MIC), agar two-fold dilution. The format is cell-based. The method, then:
as §1
(§3) Hoechst standard strains were used. […]

Test [3] relates to Streptococcus pyogenes 308A. The test is described as above. The format is cell-based. The method, then:
as §1, §3

Test [4] relates to Klebsiella aerogenes 1552E. The test is described as above. The format is cell-based. The method, then: as §1, §3
Test [5] deals with Pseudomonas aeruginosa 1592E. Described as above. It is filed as cell-based. Here is the method: as §1, §3
Another test relates to Salmonella typhimurium. Described as above. The format is cell-based. The method, then: as §1, §3
In test [6] the test system is Staphylococcus aureus 503. Described as above. The format is cell-based. The method, then:
as §1, §3

Test [7] has as its system Staphylococcus aureus SG 511. The test is described as above. It is filed as cell-based. The method, then:
as §1, §3

For the next test, the system named is Escherichia coli O 78. The test is described as above. Particulars: 10^7 CFU/ml, 37° C., 18 hours. It is filed as cell-based. The method, then: as §1, §3
The subject of test [8] is Streptococcus pyogenes 77A. Described as above. It is filed as cell-based. Here is the method:
as §1, §3

The test system of test [9] is Pseudomonas aeruginosa 1771. Described as above. It is filed as cell-based. The method, then:
as §1, §3

Test [10] has as its system Pseudomonas aeruginosa 9027. The test is described as above. It is filed as cell-based. The method, then: as §1, §3
Test [11] concerns Streptococcus faecium MD 8b. The test is described as above. The format is cell-based. The method, then:
as §1, §3

Test [12] concerns Klebsiella aerogenes 1082E. The description is as above. It is filed as cell-based. Here is the method: as §1, §3
A further test has as its system Escherichia coil DC 2. The description is as above. It is filed as cell-based, Escherichia coli. Here is the method:
as §1, §3

Another test has as its system Escherichia coil 1507E. The description is as above. It is filed as cell-based, Escherichia coli. Particulars: Mueller-Hinton agar, 10^7 CFU/ml, 37° C., 18 hours. Here is the method:
as §1, §3

Another test has as its system Escherichia coil TEM. The description is as above. The format is cell-based, Escherichia coli. Here is the method:
as §1, §3

For a further test, the system named is Escherichia coil DC 0. The test is described as above. The format is cell-based, Escherichia coli. The method, then: as §1, §3
Test [13] relates to Enterobacter cloacae 1321E. The description is as above. It is filed as cell-based. Particulars: Mueller-Hinton agar, 10^7 CFU/ml, 37° C., 18 hours. Here is the method: as §1, §2
Test [14] concerns Pseudomonas aeruginosa 1771M. The description is as above. Particulars: 18 h. The format is cell-based. Here is the method: as §1, §3
Setting [15] is: Staphylococcus aureus 285, Mueller-Hinton agar, 10^7 CFU/ml, 37° C., 18 hours.
Setting [16] is: Streptococcus pyogenes 308A, Mueller-Hinton agar, 10^7 CFU/ml, 37° C., 18 hours.
[17] abbreviates: Klebsiella aerogenes 1552E, Mueller-Hinton agar, 10^7 CFU/ml, 37° C., 18 hours.
[18] abbreviates: Pseudomonas aeruginosa 1592E, Mueller-Hinton agar, 10^7 CFU/ml, 37° C., 18 hours.
The mark [19] stands for this setting: Salmonella typhimurium, Mueller-Hinton agar, 10^7 CFU/ml, 37° C., 18 hours.
[20] abbreviates: Staphylococcus aureus 503, Mueller-Hinton agar, 10^7 CFU/ml, 37° C., 18 hours.
The mark [21] stands for this setting: Staphylococcus aureus SG 511, Mueller-Hinton agar, 10^7 CFU/ml, 37° C., 18 hours.
[22] abbreviates: Streptococcus pyogenes 77A, Mueller-Hinton agar, 10^7 CFU/ml, 37° C., 18 hours.
Setting [23] is: Pseudomonas aeruginosa 1771, Mueller-Hinton agar, 10^7 CFU/ml, 37° C., 18 hours.
Setting [24] is: Pseudomonas aeruginosa 9027, Mueller-Hinton agar, 10^7 CFU/ml, 37° C., 18 hours.
The mark [25] stands for this setting: Streptococcus faecium MD 8b, Mueller-Hinton agar, 10^7 CFU/ml, 37° C., 18 hours.
The mark [26] stands for this setting: Klebsiella aerogenes 1082E, Mueller-Hinton agar, 10^7 CFU/ml, 37° C., 18 hours.
Setting [27] is: Escherichia coil DC 2, Mueller-Hinton agar, 10^7 CFU/ml, 37° C., 18 hours.
[28] abbreviates: Escherichia coil TEM, Mueller-Hinton agar, 10^7 CFU/ml, 37° C., 18 hours.
The mark [29] stands for this setting: Escherichia coil DC 0, Mueller-Hinton agar, 10^7 CFU/ml, 37° C., 18 hours.

Molecules are shown by their SMILES. ≈ marks a conversion by molar mass, not a printed value. Read-outs that look alike come from different tables or passages of the source.

For `Cl.O=C(C[N+](=O)[O-])c1cn(C2CC2)c2c(Cl)c(N3CC4CCCNC4C3)c(F)cc2c1=O` (racemic) [B, 1-cyclopropyl-3-nitroacetyl-6-fluoro-8-chloro-7-[(trans-piperidinopyrrolidine)-8-yl]-4-oxo-1,4-dihydroquinoline hydrochloride], the MIC in test [1] came out at 0.025 µg/mL; in [2] (setting [15]), 0.098 µg/mL; in test [3] (setting [16]), 0.781 µg/mL; in test [4] (setting [17]), 0.098 µg/mL; in test [5] (setting [18]), 0.781 µg/mL; in the test with Salmonella typhimurium (setting [19]), 0.049 µg/mL. For the same compound, the minimum inhibitory concentration (MIC) in test [6] (setting [20]) is 0.195 µg/mL; in test [7] (setting [21]), 0.098 µg/mL; against Escherichia coli O 78 (Mueller-Hinton agar), less than 0.025 µg/mL; in [8] (setting [22]), 0.195 µg/mL; in test [9] (setting [23]), 1.563 µg/mL; in [10] (setting [24]) it was 0.781 µg/mL. Moreover, the MIC came out at 0.195 µg/mL in test [11] (setting [25]); 0.098 µg/mL in test [12] (setting [26]); 0.098 µg/mL against Escherichia coil DC 2 (setting [27]); 0.049 µg/mL with Escherichia coil 1507E; 0.049 µg/mL against Escherichia coil TEM (setting [28]); 0.391 µg/mL in the test on Escherichia coil DC 0 (setting [29]). In test [13], this compound registered an MIC of 0.013 µg/mL.

As for `COc1c(N2C[C@@H]3CCCN[C@@H]3C2)c(F)cc2c(=O)c(C(=O)C[N+](=O)[O-])cn(C3CC3)c12.Cl` (racemic) [D, 1-cyclopropyl-3-nitroacetyl-6-fluoro-8-methoxy-7-[(cis-piperidinopyrrolidine)-8-yl]-4-oxo-1,4-dihydroquinoline hydrochloride], the minimum inhibitory concentration (MIC) in [1] was found to be 0.013 µg/mL; in test [2] (setting [15]), 0.391 µg/mL; in [3] (setting [16]) it was 1.563 µg/mL; in [4] (setting [17]), 0.049 µg/mL; in test [5] (setting [18]), 0.781 µg/mL; against Salmonella typhimurium (setting [19]) it was 0.098 µg/mL. Further, the MIC in test [6] (setting [20]) is 0.391 µg/mL; in test [7] (setting [21]), 0.195 µg/mL; in the test with Escherichia coli O 78 (Mueller-Hinton agar), 0.049 µg/mL; in test [8] (setting [22]), 0.391 µg/mL; in test [9] (setting [23]) it was 0.781 µg/mL; in test [10] (setting [24]), 1.563 µg/mL. Also, the MIC in test [11] (setting [25]) amounted to 0.391 µg/mL; in [12] (setting [26]) it was 0.049 µg/mL; in the test on Escherichia coil DC 2 (setting [27]), 0.098 µg/mL; against Escherichia coil 1507E, 0.098 µg/mL; in the test with Escherichia coil TEM (setting [28]) it was 0.098 µg/mL; against Escherichia coil DC 0 (setting [29]) it was 0.195 µg/mL. The compound further returned an MIC in test [13] of 0.013 µg/mL.

As to `O=C(O)c1cn(C2CC2)c2cc(N3CCNCC3)c(F)cc2c1=O` [Ciprofloxacin, ciprofloxacin, reference compound], the MIC in test [2] (Staphylococcus aureus, 285, 18 h) turned out to be 0.391 µg/mL (≈ 1.18 µM); in test [3] (Streptococcus pyogenes, 308A, 18 h), 3.12 µg/mL (≈ 9.43 µM); in test [4] (Klebsiella aerogenes, 1552E, 18 h), 0.013 µg/mL (≈ 0.0392 µM); in test [5] (Pseudomonas aeruginosa, 1592E, 18 h), 0.195 µg/mL (≈ 0.589 µM); with Salmonella typhimurium (Salmonella enterica, TYPHIMURIUM, 18 h), 0.007 µg/mL (≈ 0.0211 µM); in [6] (Staphylococcus aureus, 503, 18 h), 0.781 µg/mL (≈ 2.36 µM). Besides, the MIC in [7] (Staphylococcus aureus, SG511, 18 h) is 0.195 µg/mL (≈ 0.589 µM); with Escherichia coli O 78 (O78, Mueller-Hinton agar, read-out: MIC), less than 0.002 µg/mL; in [8] (Streptococcus pyogenes, 77A, 18 h), 0.781 µg/mL (≈ 2.36 µM); in test [9] (Pseudomonas aeruginosa, 1771, 18 h), 0.195 µg/mL (≈ 0.589 µM); in test [10] (Pseudomonas aeruginosa, 9027, 18 h), 0.391 µg/mL (≈ 1.18 µM); in [11] (Enterococcus faecium, MD8B, 18 h), 0.781 µg/mL (≈ 2.36 µM). In addition, the MIC in test [12] (Klebsiella aerogenes, 1082E, 18 h) was less than 0.002 µg/mL; in [14], 0.049 µg/mL (≈ 0.148 µM); in the test on Escherichia coil DC 2 (Escherichia, DC2, 18 h) it was 0.098 µg/mL (≈ 0.296 µM); in the test on Escherichia coil 1507E (read-out: MIC), 0.007 µg/mL (≈ 0.0211 µM); in the test on Escherichia coil TEM (Escherichia, 18 h) it was 0.007 µg/mL (≈ 0.0211 µM); against Escherichia coil DC 0 (Escherichia, DC0, 18 h), 0.195 µg/mL (≈ 0.589 µM).

As to `COc1c(N2CC3CCCNC3C2)c(F)cc2c(=O)c(C(=O)C[N+](=O)[O-])cn(C3CC3)c12.Cl` (racemic) [C, 1-cyclopropyl-3-nitroacetyl-6-fluoro-8-methoxy-7-[(trans-piperidinopyrrolidine)-8-yl]-4-oxo-1,4-dihydroquinoline hydrochloride], the MIC in test [1] is 0.004 µg/mL; in [2] (setting [15]) it was 0.025 µg/mL; in test [3] (setting [16]), 0.781 µg/mL; in [4] (setting [17]) it was 0.013 µg/mL; in [5] (setting [18]), 0.781 µg/mL; against Salmonella typhimurium (setting [19]), 0.007 µg/mL. The MIC in test [6] (setting [20]) is 0.025 µg/mL; in [7] (setting [21]), 0.098 µg/mL; in the test on Escherichia coli O 78 (Mueller-Hinton agar), less than 0.002 µg/mL; in [8] (setting [22]), 0.391 µg/mL; in [9] (setting [23]), 0.781 µg/mL; in [10] (setting [24]) it was 0.781 µg/mL. Also, the MIC turned out to be 0.391 µg/mL in test [11] (setting [25]); 0.049 µg/mL in [12] (setting [26]); 0.098 µg/mL in the test with Escherichia coil DC 2 (setting [27]); 0.025 µg/mL against Escherichia coil 1507E; 0.004 µg/mL with Escherichia coil TEM (setting [28]); 0.195 µg/mL against Escherichia coil DC 0 (setting [29]). This compound also yielded an MIC in test [13] of less than 0.002 µg/mL.

For the compound `O=C(O)c1cn(C2CC2)c2c(Cl)c(N3CC4CCCNC4C3)c(F)cc2c1=O` (stereo not drawn) [A, 1-cyclopropyl-6-fluoro-7-[(trans-piperidinopyrrolidine)-8-yl]-8-chloro-1,4-dihydroguinoline-4-oxo-3-carboxylicacid], the MIC is 0.004 µg/mL (≈ 0.00986 µM) in [1]; 0.025 µg/mL (≈ 0.0616 µM) in [2] (setting [15]); 0.391 µg/mL (≈ 0.963 µM) in [3] (setting [16]); 0.049 µg/mL (≈ 0.121 µM) in [4] (setting [17]); 0.781 µg/mL (≈ 1.92 µM) in [5] (setting [18]); less than 0.002 µg/mL in the test with Salmonella typhimurium (setting [19]). Moreover, the MIC in test [6] (setting [20]) is 0.025 µg/mL (≈ 0.0616 µM); in test [7] (setting [21]) it was 0.025 µg/mL (≈ 0.0616 µM); in the test on Escherichia coli O 78 (Mueller-Hinton agar), less than 0.002 µg/mL; in [8] (setting [22]), 0.098 µg/mL (≈ 0.241 µM); in [9] (setting [23]), 0.781 µg/mL (≈ 1.92 µM); in [10] (setting [24]), 0.781 µg/mL (≈ 1.92 µM). For the same compound, the MIC in [11] (setting [25]) was 0.098 µg/mL (≈ 0.241 µM); in test [12] (setting [26]), less than 0.002 µg/mL; in the test with Escherichia coil DC 2 (setting [27]), 0.013 µg/mL (≈ 0.032 µM); against Escherichia coil 1507E it was 0.025 µg/mL (≈ 0.0616 µM); in the test on Escherichia coil TEM (setting [28]), 0.007 µg/mL (≈ 0.0172 µM); in the test on Escherichia coil DC 0 (setting [29]), 0.195 µg/mL (≈ 0.48 µM). The compound further displayed an MIC in [13] of less than 0.002 µg/mL.
